Data set [1] can be described thus: Human microsome stability assay. It counts as in vitro ADME. The settings on record: 1 μM test compound, 0.5 mg/mL liver microsomal protein, NADPH regenerating system, 37° C.; <7 low, 7-16.2 medium, >16.2 high. On the procedure: The human microsomal stability assay is used for early assessment of metabolic stability of a test compound in human liver microsomes.
Human liver microsomes (Cat.NO.: 452117, Corning, USA) were pre-incubated with test compound for 10 minutes at 37° C. in 100 mM potassium phosphate buffer, pH 7.4. The reactions were initiated by adding NADPH regenerating system. The final incubation mixtures contained 1 μM test compound, 0.5 mg/mL liver microsomal protein, 1 mM MgCl2, 1 mM NADP, 1 unit/mL isocitric dehydrogenase and 6 mM isocitric acid in 100 mM potassium phosphate buffer, pH 7.4. After incubation times of 0, 3, 6, 9, 15 and 30 minutes at 37° C., 300 μL of cold acetonitrile (including internal standard) was added to 100 μL incubation mixture to terminate the reaction. Following precipitation and centrifugation, the amount of compound remaining in the samples were determined by LC-MS/MS. Controls of no NADPH regenerating system at zero and 30 minutes were also prepared and analyzed. […] (Human microsome clearance: <7 mL/min/kg (low); 7-16.2 mL/min/kg (medium); >16.2 mL/min/kg (high))
(Liver microsomes are vesicles of endoplasmic reticulum, rich in cytochrome P450 enzymes.)

Data set [2] concerns Escherichia coli ATCC 25922. Description: Minimal Inhibitory Concentration (MIC) broth dilution assay. Conditions: ATCC25922, 20 h, read-out: MIC Escherichia coli ATCC 25922. It counts as cell-based. In a few lines: (§1)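 Broth dilution MIC in cation-adjusted Mueller Hinton broth, final inoculum 5×10^5 CFU/mL, serial 2-fold compound dilutions from DMSO stocks. Plates incubated 20 hours at 35° C. in ambient air; MIC read visually as lowest concentration inhibiting visible growth.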

Data set [3] relates to Klebsiella pneumonia ATCC 43816. The data set is described as above. It counts as cell-based. Conditions: Klebsiella pneumoniae, ATCC43816, 20 h, read-out: MIC Klebsiella pneumoniae ATCC43816. The method in brief: as §1
Data set [4] has as its system efflux-deficient E. coli strains. Conditions: Bioorganic Chemistry 102 (2020) 104055; cited from earlier work.
A further data set deals with LPS synthesis pathway. Conditions: Bioorganic Chemistry 102 (2020) 104055; cited from earlier work.

In brackets after ≈: the same amount, converted by molar mass.

`NCCCNCc1ccc(C(=O)Nc2ccc(S(=O)(=O)N3CCN(c4cc(C(F)(F)F)cc(Cl)n4)CC3)cc2)cc1` [Example 001, 4-[(3-Aminopropylamino)methyl]-N-[4-[4-[6-chloro-4-(trifluoromethyl)-2-pyridyl]piperazin-1-yl]sulfonylphenyl]benzamide]: in data set [1], the “Clearance of Human microsome” value is given as 6.2 mL/min/kg. In addition, the MIC (commonly the lowest concentration found to suppress growth) was 0.51 µg/mL (≈ 0.835 µM) in data set [2] and 1.5 µg/mL (≈ 2.45 µM) in data set [3].
`NCCCNCc1ccc(C(=O)Nc2ccc(S(=O)(=O)N3CCN(c4nccc(C(F)(F)F)n4)CC3)cc2)cc1` [Example 012, 4-[(3-Aminopropylamino)methyl]-N-[4-[4-[4-(trifluoromethyl)pyrimidin-2-yl]piperazin-1-yl]sulfonylphenyl]benzamide]: in data set [1], the “Clearance of Human microsome” value came out at 6.2 mL/min/kg. Moreover, the MIC came to 1.8 µg/mL (≈ 3.12 µM) in data set [2] and 3.6 µg/mL (≈ 6.23 µM) in data set [3].
For the compound `N#Cc1cc(Cl)nc(N2CCN(S(=O)(=O)c3ccc(NC(=O)c4cccc(CNCCCN)c4)cc3)CC2)c1` [Example 020, 3-[(3-Aminopropylamino)methyl]-N-[4-[4-(6-chloro-4-cyano-2-pyridyl)piperazin-1-yl]sulfonylphenyl]benzamide], the “Clearance of Human microsome” value in data set [1] is on record as 8.8 mL/min/kg. Further, the MIC in data set [2] came to 1.2 µg/mL (≈ 2.11 µM); in data set [3], 2.5 µg/mL (≈ 4.4 µM).
In the same order, the values of `O=C(c1cnn2cccnc12)N1CCc2cc(S(=O)(=O)N3CCN(c4cc(C(F)(F)F)cc(Cl)n4)CC3)ccc21` [Example 034, [5-[4-[6-Chloro-4-(trifluoromethyl)-2-pyridyl]piperazin-1-yl]sulfonylindolin-1-yl]-pyrazolo[1,5-a]pyrimidin-3-yl-methanone] are 6.2 mL/min/kg, 0.92 µg/mL (≈ 1.55 µM) and 0.92 µg/mL (≈ 1.55 µM).
Take `O=C(C1=NOC2(CCCNC2)C1)N1CCc2cc(S(=O)(=O)N3CCN(c4cc(C(F)(F)F)cc(Cl)n4)CC3)ccc21` (stereo not drawn) [Example 039]: the “Clearance of Human microsome” value in data set [1] was 9.4 mL/min/kg.
Take `O=C(CNCCO)N1CCc2cc(S(=O)(=O)N3CCN(c4cc(C(F)(F)F)cc(Cl)n4)CC3)ccc21` [Example 041, 1-[5-[4-[6-Chloro-4-(trifluoromethyl)-2-pyridyl]piperazin-1-yl]sulfonylindolin-1-yl]-2-(2-hydroxyethylamino)ethanone]: the “Clearance of Human microsome” value in data set [1] stood at 6.2 mL/min/kg. Further, the MIC in data set [2] was 1 µg/mL (≈ 1.82 µM); in data set [3] it was 8.3 µg/mL (≈ 15.1 µM).
`CC(=O)Oc1ccc(C(=O)N2CCc3cc(S(=O)(=O)N4CCN(c5cc(C(F)(F)F)cc(Cl)n5)CC4)ccc32)cc1OC(C)=O` [Example 043, [2-Acetoxy-4-[5-[4-[6-chloro-4-(trifluoromethyl)-2-pyridyl]piperazin-1-yl]sulfonylindoline-1-carbonyl]phenyl]acetate]: in data set [1], the “Clearance of Human microsome” value came out at 6.2 mL/min/kg. In addition, the MIC in data set [2] came to 4.2 µg/mL (≈ 6.3 µM); in data set [3], 2.1 µg/mL (≈ 3.15 µM).
On to `NCCCN1CCN(c2cccc(C(=O)Nc3ccc(S(=O)(=O)N4CCN(c5cc(C(F)(F)F)cc(Cl)n5)CC4)cc3)c2)CC1` [Example 068, 3-[4-(3-Aminopropyl)piperazin-1-yl]-N-[4-[4-[6-chloro-4-(trifluoromethyl)-2-pyridyl]piperazin-1-yl]sulfonylphenyl]benzamide], for which the “Clearance of Human microsome” value in data set [1] amounted to 6.2 mL/min/kg. The MIC in data set [2] was 1 µg/mL (≈ 1.5 µM); in data set [3], 2.1 µg/mL (≈ 3.15 µM).
In the same order, the values of `O=C(Nc1ccc(S(=O)(=O)N2CCN(c3cc(C(F)(F)F)cc(Cl)n3)CC2)cc1)c1cccc(CNCCCN2CCNCC2)c1` [Example 078, N-[4-[4-[6-chloro-4-(trifluoromethyl)-2-pyridyl]piperazin-1-yl]sulfonylphenyl]-3-[(3-piperazin-1-ylpropylamino)methyl]benzamide] are 6.2 mL/min/kg, 1.4 µg/mL (≈ 2.06 µM) and 5.7 µg/mL (≈ 8.38 µM).
On to `CC(=O)N1CCc2cc(S(=O)(=O)N3CCN(c4cc(Cl)cc(C(F)(F)F)c4)CC3)ccc21` [Example F-1, reference compound], for which the “Clearance of Human microsome” value in data set [1] was determined as 14 mL/min/kg. The MIC in data set [2] and in data set [3] was greater than 24 µg/mL throughout. Besides, the “antibiotic activity against efflux-deficient E. coli strains” value in data set [4] was “antibiotic activity”. Also, in the data set on LPS synthesis pathway, the “LPS synthesis pathway inhibition activity” value was “LPS synthesis pathway inhibition activity”.
